Results: patent publication US5428175A (priority 1993, dated 1995)
Converted amounts (≈) assume the structure as drawn.

What was measured:
[1] = test system: Human epidermoid carcinoma (oral) cell KB; assay: Cytocidal activity of HS-1 for KB cells (MTT); format: cell-based; conditions: 72 hours, absorption at 540 nm, read-out: TC50 (the source's name)
Procedure: Human epidermoid carcinoma (oral) cell KB was inoculated into 96-well microplates (4000 cells/200 μl/well) and cultured in DMEM medium (containing 5% FCS) in 5% CO2 at 37° C. for 24 hours. 5 μl of HS-1 solutions in DMSO at various HS-1 concentrations were added to above culture. After the culture incubated for 72 hours, 10 μl of a 2.5 mg/ml MTT solution was added and incubator was continued for a further 4 hours, thus producing formazan. After the addition of 200 μl of DMSO, the absorption at 540 nm was measured using an imunoreader. The cytocidal activity of HS-1 for KB cells was determined from the ratio of the absorption of the compound to the absorption of the control.

[2] = test system: Xanthomonas oryzae IFO 331.2; assay: microbe, parasite or virus in culture; format: cell-based; conditions: IFO331, read-out: Inhibition zone
[3] = Solubility; format: physicochemical
[4] = test system: Xanthomonas citri IFO 3781; assay: Antimicrobial activity, paper disc inhibition zone; format: cell-based; conditions: IFO3781, 40 μg/disc, 8 mm paper disc
Procedure: (§1) Antimicrobial activity of HS-1 was examined using eleven kinds of bacteria, fungi, and yeasts using paper discs with a diameter of 8 mm, at a concentration of 40 μg/disc. The results are shown in Table 3, wherein the antimicrobial activity of HS-1 is indicated as the diameter of the inhibition zone.

[5] = test system: Bacillus subtilis rec -; assay: Antimicrobial activity, paper disc inhibition zone; format: cell-based; conditions: 40 μg/disc, 8 mm paper disc; Bacillus subtilis rec - (repair activity defective strain)
Procedure: as §1

[6] = test system: Bacillus subtilis rec +; assay: Antimicrobial activity, paper disc inhibition zone; format: cell-based; conditions: 40 μg/disc, 8 mm paper disc; Bacillus subtilis rec + (wild strain)
Procedure: as §1

[7] = test system: Escherichia coli AB 1157; assay: Antimicrobial activity, paper disc inhibition zone; format: cell-based; conditions: AB1157, 40 μg/disc, 8 mm paper disc
Procedure: as §1

[8] = test system: Pseudomonas aeruginosa N-10 (L-form); assay: Antimicrobial activity, paper disc inhibition zone; format: cell-based; conditions: 40 μg/disc, 8 mm paper disc
Procedure: as §1

[9] = test system: Staphylococcus aureus IFO 12732; assay: Antimicrobial activity, paper disc inhibition zone; format: cell-based; conditions: IFO12732, 40 μg/disc, 8 mm paper disc
Procedure: as §1

[10] = test system: Mycobacterium phlei IFO 11158; assay: Antimicrobial activity, paper disc inhibition zone; format: cell-based; conditions: Mycolicibacterium phlei, IFO11158, 40 μg/disc, 8 mm paper disc
Procedure: as §1

[11] = test system: Escherichia coli BE 1196; assay: Antimicrobial activity, paper disc inhibition zone; format: cell-based; conditions: BE1196, 40 μg/disc, 8 mm paper disc
Procedure: as §1

[12] = test system: Botrytis cinerea IFO 5365; assay: Antimicrobial activity, paper disc inhibition zone; format: cell-based; conditions: IFO5365, 40 μg/disc, 8 mm paper disc
Procedure: as §1

[13] = test system: Schizosaccharomyces pombe IFO 0638; assay: Antimicrobial activity, paper disc inhibition zone; format: cell-based; conditions: IFO0638, 40 μg/disc, 8 mm paper disc
Procedure: as §1

[14] = known from the literature; cited from earlier work

SMILES	IC50 [1]	zone of inhibition at 40 µg/disc [2]	Solubility ([3]; in dimethyl sulfoxide)	Solubility ([3]; in methanol)	Solubility ([3]; in water)	zone of inhibition at 40 µg/disc [4]	zone of inhibition at 40 µg/disc [5]	zone of inhibition at 40 µg/disc [6]	zone of inhibition at 40 µg/disc [7]	zone of inhibition at 40 µg/disc [8]	zone of inhibition at 40 µg/disc [9]	zone of inhibition at 40 µg/disc [10]	zone of inhibition at 40 µg/disc [11]	zone of inhibition at 40 µg/disc [12]	zone of inhibition at 40 µg/disc [13]	antimicrobial and antiprotozoal activities [14]
O=C1N=C(c2c[nH]c3ccccc23)C=C1c1c[nH]c2ccccc12 [HS-1]	0.68 µg/mL (≈ 2.18 µM)	11.9 mm	Readily soluble	scarcely soluble	insoluble	0 mm	< 10 mm	0 mm	0 mm	< 10 mm	0 mm	0 mm	0 mm	0 mm	0 mm	–
O=C1NC(c2c[nH]c3ccc(O)cc23)=C/C1=C1\C(=O)Nc2ccccc21 [violacein]	–	–	–	–	–	–	–	–	–	–	–	–	–	–	–	known to exhibit antimicrobial and antiprotozoal activities
